Like-named read-outs stand apart in the source and are kept apart here.

This is an account of results in patent US20230391714A1, “INHIBITORS OF THE INTERACTION BETWEEN TRIP8B AND HCN CHANNELS AND USES THEREOF FOR TREATING NEUROLOGICAL DISEASES AND DISORDERS” (Northwestern University, priority 2022, published 2023).

One data set has as its target TRIP8b and HCN1 (Homo sapiens (Human), UniProt Q8IYB4). In words: NanoBiT live cell protein-protein interaction assay. It is filed as cell-based. To be noted: HEK293T cells, 30 min incubation. How it is done:
NanoBiT live cell protein-protein interaction assay. HEK293T cells (obtained freshly from ATCC) were plated in DMEM (Thermo Fisher, #11965-092) with 10% FBS (Thermo Fisher, #16000-044) and Pen/Strep (Thermo Fisher #15140-122) at 1 million cells per well in 6-well tissue culture treated plates. The next day, cells were co-transfected using Lipofectamine 3000 with plasmids encoding the small Nanoluciferase fragment (SmBiT) fused to the N-terminus of full-length HCN1 (SmBiT-HCN1), and the large Nanoluciferase fragment (LgBiT) fused to the N-terminus of TRIP8b(1a-4) (LgBiT-TRIP8b). The plasmids were constructed by cloning into backbone vectors from the Promega NanoBiT MCS cloning kit #N2014. As a control for specific inhibition, other cells were co-transfected with SmBiT-PRKACA and LgBiT-PRKAR2A positive control plasmids from the kit. 24 hours post-transfection, the cells were trypsinized with TrypLE (Thermo Fisher, #12604-013), washed and suspended in phenol red-free Opti-MEM I (Thermo Fisher, #11058-021), and 25,000 cells per well were plated in white 384-well tissue culture-treated plates (Greiner #781080). […] Luminescence was generated by adding Nano-Glo live cell substrate (Promega, #N2011) and incubating for 30 minutes at 37° C. prior to detecting on a luminescent reader (Biotek Neo2).

Data set [1] can be described thus: Thermodynamic solubility in PBS. Format: physicochemical. To be noted: PBS at pH 7.4, room temperature, stirring for 16 hours. The source says: (§1) Solubility and Mouse Microsomal Stability. […] In order to improve the aqueous solubility to support additional biochemical assays we made and characterized several salt forms. The formic acid (FA) salt was recovered after reverse-phase preparative HPLC while using formic acid as a modifier. […] On stirring the free amine in 4M HCl in dioxane, the compound was converted to the HCl salt as a white solid (Scheme 1). […] As a result, the HCl-salt of NUCC-0200590 was used for biophysical assays. The inhibitor was also screened for in vitro stability towards mouse liver microsomes to evaluate its potential metabolism and suitability for future in vivo experiments. The microsomal stability was measured after a 60-minute incubation at 37° C. with mouse liver microsomes. The compound was almost completely consumed by mouse liver microsomes after a 60-minute incubation as only 3.7% of the parent compound remained.

The target in a further data set is TRIP8b-HCN1c40 (Homo sapiens (Human), UniProt Q8IYB4). In words: TRIP8b-HCN1c40 AlphaScreen assay. Format: binding. A digest of the protocol: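 GST-tagged HCN1c40 (C-terminal 40 residues, 20 nM) was incubated 3 h with 200 nM His-tagged TRIP8b(241-602) and varying compound concentrations. Anti-GST acceptor beads, then nickel chelate donor beads, were added for 1.5 h each before the AlphaScreen signal was read.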
For orientation: Alpha assays give light when donor and acceptor beads are brought close together.

The nature of data set [2]: Mouse liver microsomal stability. To be noted: 60-minute incubation at 37° C. with mouse liver microsomes. It is filed as in vitro ADME.
Description: as §1
For orientation: Liver microsomes are a subcellular fraction often used to study metabolism.

Data set [3] concerns HCN channels in CA1 pyramidal neurons. In words: Slice electrophysiology in CA1 pyramidal neurons. To be noted: 15 μM. Format: cell-based, mice. The method, then:
Slice Electrophysiology. Whole cell recordings from CA1 pyramidal neurons were performed using an electrophysiology rig described previously (Zhou et al., 2013; 2015). 300 micron sagittal sections were made from male and female mice with 5 μM CGP52432, 2 μM SR-95531, and 10 μM MK-801 to block GABAB, GABAA, and NMDAR. ACSF was composed of 125 mM NaCl, 2.5 mM KCl, 25 mM NaHCO3, 1.25 mM Na2PO4, 1 mM MgCl2, 2 mM CaCl2), and 25 mM glucose while the internal solution was 115 mM K-gluconate, 20 mM KCl, 10 mM Na2Phosphocreatinine, 2 mM MgATP, and 0.3 mM NaGTP. NUCC-0200590 was incubated in the slice chamber in a subset of experiments as described in the text. Current clamp recordings were performed at a holding potential of −70 mV.

Another data set deals with HEK293T cells. Briefly: Cell viability assay (alamar Blue). It is filed as cell-based. To be noted: 0-50 μM, 24 hours. The method, then: Cell Viability Assays. HEK293T Cells (ATCC, Manassas, Virginia) were maintained as previously described (Lyman et al., 2017b). These cells were plated at 30-50% confluence and incubated for 24 hours with the concentration of NUCC-0200590 specified in the main text. The cells were then incubated with alamar Blue assay reagent per the Manufacturer's instructions (ThermoFisher, Rockford, IL) prior to reading the plates on a plate reader.
Background: The colour change of resazurin is a common sign of viable cells or microbes.

Chain of TRIP8b-HCN1c40 (Q8IYB4 265-626): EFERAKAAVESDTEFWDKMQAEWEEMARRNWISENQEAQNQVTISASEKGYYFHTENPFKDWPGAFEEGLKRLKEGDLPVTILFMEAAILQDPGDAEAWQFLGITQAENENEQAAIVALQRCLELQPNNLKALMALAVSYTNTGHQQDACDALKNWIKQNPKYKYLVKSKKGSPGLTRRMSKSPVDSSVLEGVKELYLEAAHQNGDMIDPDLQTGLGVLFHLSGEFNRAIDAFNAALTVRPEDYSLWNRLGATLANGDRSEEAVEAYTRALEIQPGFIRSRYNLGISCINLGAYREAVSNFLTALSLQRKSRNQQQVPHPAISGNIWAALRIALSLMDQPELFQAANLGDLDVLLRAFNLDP
Chain of TRIP8b and HCN1 (Q8IYB4 other isoform, or with tags, fused parts or gaps, species assumed): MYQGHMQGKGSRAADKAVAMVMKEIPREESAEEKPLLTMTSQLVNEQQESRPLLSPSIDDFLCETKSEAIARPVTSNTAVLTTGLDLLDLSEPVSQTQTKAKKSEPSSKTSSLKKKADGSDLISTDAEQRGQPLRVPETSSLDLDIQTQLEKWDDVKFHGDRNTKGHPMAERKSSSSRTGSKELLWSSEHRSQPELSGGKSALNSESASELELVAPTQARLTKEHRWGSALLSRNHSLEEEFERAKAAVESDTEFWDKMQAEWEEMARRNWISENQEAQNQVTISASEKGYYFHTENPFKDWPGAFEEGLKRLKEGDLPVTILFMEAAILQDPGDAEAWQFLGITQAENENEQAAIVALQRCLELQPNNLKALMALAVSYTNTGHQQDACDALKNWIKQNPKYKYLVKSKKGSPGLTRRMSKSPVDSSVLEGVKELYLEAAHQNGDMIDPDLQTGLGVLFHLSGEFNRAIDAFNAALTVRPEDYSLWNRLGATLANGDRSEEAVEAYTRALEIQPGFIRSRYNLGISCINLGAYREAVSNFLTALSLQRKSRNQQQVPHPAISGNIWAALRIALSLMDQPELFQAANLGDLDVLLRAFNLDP

In the case of `CN1CCN(Cc2cc(-c3ccc(F)cc3)ccc2OCC(=O)NCc2ccc(Cl)cc2)CC1.Cl` [NUCC-0200590 HCl salt, N-(4-chlorobenzyl)-2-((4′-fluoro-3-((4-methylpiperazin-1-yl)methyl)-[1,1′-biphenyl]-4-yl)oxy)acetamide hydrochloride], the “disruption of TRIP8b-HCN1 interaction (NanoBiT luminescence)” value at TRIP8b and HCN1 is “disrupts the interaction between fragments of TRIP8b and HCN1 in live cells”. Further, in data set [1] (aqueous buffer, thermodynamic from solid), the thermodynamic solubility at 16 h was found to be 252 µM.

For the compound `CN1CCN(Cc2cc(-c3ccc(F)cc3)ccc2OCC(=O)NCc2ccc(Cl)cc2)CC1` [NUCC-0200590, N-(4-chlorobenzyl)-2-((4′-fluoro-3-((4-methylpiperazin-1-yl)methyl)-[1,1′-biphenyl]-4-yl)oxy)acetamide], the IC50 at TRIP8b-HCN1c40 (activity ranges, read-out: TRIP8b-HCN1c40 Alphascreen IC50 activity) was 5 to 10 µM; at TRIP8b-HCN1c40 (most potent hit compound of in silico screen, read-out: IC50 value in the AlphaScreen assay) it was 19.9 ± 0.9 µM; on TRIP8b-HCN1c40 (read-out: TRIP8b-HCN1c40 Alphascreen IC50), 5.4 µM. Moreover, in data set [1], the thermodynamic solubility result is “completely insoluble”. Further, the parent compound remained in data set [2] is 3.7%. Also, the sag ratio in data set [3] (Trip8b+/+ mice) turned out to be 1.14±0.01; in data set [3] (Trip8b−/− mice), 1.05±0.02. For the same compound, the “viability as percentage of 0 μM control” value in the data set with HEK293T cells was “main effect of concentration”.

The term solubility (thermodynamic) denotes solubility found after equilibrating the solid with the medium. By IC50 is commonly meant the concentration that inhibits the measured activity by half.
